Patent US8008320B2, “3-(indolyl)-4-arylmaleimide derivatives and their use as angiogenesis inhibitors” (Johannes Gutenberg-Universitatis, priority 2004, dated 2011)

melting point | Compound
210 °C | COc1ccc(C2=C(c3c[nH]c4ccccc34)C(=O)NC2=O)cc1OC [Example 2, 3-(Indole-3-yl)-4-(3,4-dimethoxyphenyl)-1H-pyrrole-2,5-dione]
268 °C | COc1ccc2[nH]cc(C3=C(c4cc(OC)c(OC)c(OC)c4)C(=O)NC3=O)c2c1 [Example 3, 3-(5-Methoxyindole-3-yl)-4-(3,4,5-trimethoxyphenyl)-1H-pyrrole-2,5-dione]
187 °C | COc1cc(C2=C(c3cn(C)c4ccccc34)C(=O)NC2=O)cc(OC)c1OC [Example 4, 3-(1-Methylindole-3-yl)-4-(3,4,5-trimethoxyphenyl)-1H-pyrrole-2,5-dione]
266 °C | COc1cc(C2=C(c3c(C)[nH]c4ccccc34)C(=O)NC2=O)cc(OC)c1OC [Example 5, 3-(2-Methylindole-3-yl)-4-(3,4,5-trimethoxyphenyl)-1H-pyrrole-2,5-dione]
304 °C | COc1cc(C2=C(c3c(-c4ccccc4)[nH]c4ccccc34)C(=O)NC2=O)cc(OC)c1OC [Example 6, 3-(2-Phenylindole-3-yl)-4-(3,4,5-trimethoxyphenyl)-1H-pyrrole-2,5-dione]
252 °C | COc1cc(C2=C(c3cc4ccccc4[nH]3)C(=O)NC2=O)cc(OC)c1OC [Example 7, 3-(Indole-2-yl)-4-(3,4,5-trimethoxyphenyl)-1H-pyrrole-2,5-dione]
162 °C | COc1cc(C2=C(c3c[nH]c4ncccc34)C(=O)NC2=O)cc(OC)c1OC [Example 8, 3-(7-Azaindol-3-yl)-4-(3,4,5-trimethoxyphenyl)-1H-pyrrole-2,5-dione]
